Patent publication US20240165054A1, “TREATMENT” (Verona Pharma PLC, priority 2022, published 2024)

Columns and labels:
COPD patients = details: vs placebo; population as given per drug; cited from earlier work
[1] = test system: patients with moderate to severe COPD; assay: Clinical study of nebulised ensifentrine vs placebo in COPD: moderate/severe COPD exacerbations; format: in vivo, human
Experimental: (§1) A clinical study was conducted to determine the efficacy of ensifentrine in treating COPD compared with placebo. Ensifentrine was administered by nebuliser at a dose of 3 mg twice daily (BID) for 24 weeks. The study was a multi-centre, randomized, double-blind, parallel-group, placebo-controlled trial with around 800 patients and 5:3 randomization.
(§2) The study population included patients aged 40-80 years with moderate to severe COPD (FEV1 30%-70% p.n., FEV1/forced vital capacity [FVC] ratio <0.7, with mMRC≥2). The randomization stratified (a) the use of stable background maintenance LAMA or LABA therapy use (approx. 50%. yes or no) and (b) cigarette smoking (current or former). Inhaled corticosteroid (ICS) maintenance therapy was permitted in up to 20% of patients under certain provisions.
(§3) The primary endpoint of the study was change from baseline in average FEV1 area under the curve (AUC)0-12 h post-dose at week 12. Secondary endpoints of the study included: peak FEV1 over 4 hours post-dose at Week 12; morning trough FEV1 at Week 12; and other endpoints including moderate/severe COPD exacerbations frequency and time to first moderate or severe COPD exacerbation over 24 Weeks.
Exacerbations were defined as worsening of 2 or more major symptoms (dyspnea, sputum volume, and sputum purulence) or worsening of any 1 major symptom together with any 1 of the following minor symptoms: sore throat, colds, fever without other cause, and increased cough or wheeze for at least 2 consecutive days. COPD exacerbations were considered to be of moderate severity if treatment with systemic corticosteroids and/or antibiotics was required and were considered to be severe if hospitalization was required.
The investigational product and placebo were provided in 2.5 mL unit dose format in an ampule and administered via a nebuliser.

[2] = test system: patients with moderate to severe COPD; assay: Clinical study of nebulised ensifentrine vs placebo in COPD: lung function (FEV1); format: in vivo, human; details: all subgroups of COPD patients in the study
Experimental: as §1, §2, §3
Baseline FEV1 is the mean of the two measurements taken before study medication on the day of first dosing, i.e. ≤40 minutes and just prior to dosing, pre-dose on day 1. […]

Structure (SMILES)	Rate Reduction (=1-Rate Ratio) of COPD exacerbations (COPD patients)	Reduction in relative risk of moderate or severe COPD exacerbation vs placebo ([1]; 3 mg BID by nebuliser, over 24 weeks, including 52% of patients on background bronchodilator medications)	Reduction in the frequency of COPD exacerbations compared with other treatments ([1]; comparison with literature treatments of Table 4)	Time to first exacerbation / frequency of COPD exacerbations (conclusion) ([1]; over 24 weeks)	Improvement in lung function in subgroups [2]
CS(=O)(=O)Nc1ccc(C(=O)O[C@@H](Cc2c(Cl)c[n+]([O-])cc2Cl)c2ccc(OC(F)F)c(OCC3CC3)c2)cc1OCC1CC1 [Tanimilast]	13-28% all doses	–	–	–	–
COc1cc2c(cc1OC)-c1c/c(=N\c3c(C)cc(C)cc3C)n(CCNC(N)=O)c(=O)n1CC2 [Ensifentrine, N-(2-{(2E)-9,10-dimethoxy-4-oxo-2-[(2,4,6-trimethylphenyl)imino]-6,7-dihydro-2H-pyrimido[6,1-α]isoquinolin-3(4H)-yl}ethyl)urea]	–	approximately 40%	greater reduction in the frequency of COPD exacerbations than other treatments	particularly effective in increasing the time to first exacerbation	improvement in lung function with ensifentrine that was statistically significant
